Test results from article PMC8842743 (Journal of Alzheimer's Disease Reports, 2022).

Legend:
[1] = target: Porcine gastric mucosa pepsin (Sus scrofa, UniProt P00791); assay: Pepsin FRET assay; format: biochemical
[2] = target: T1, Renin recombinant human enzyme (Homo sapiens, UniProt P00797); assay: Renin FRET assay; format: biochemical
T1 sequence (P00797 67-406): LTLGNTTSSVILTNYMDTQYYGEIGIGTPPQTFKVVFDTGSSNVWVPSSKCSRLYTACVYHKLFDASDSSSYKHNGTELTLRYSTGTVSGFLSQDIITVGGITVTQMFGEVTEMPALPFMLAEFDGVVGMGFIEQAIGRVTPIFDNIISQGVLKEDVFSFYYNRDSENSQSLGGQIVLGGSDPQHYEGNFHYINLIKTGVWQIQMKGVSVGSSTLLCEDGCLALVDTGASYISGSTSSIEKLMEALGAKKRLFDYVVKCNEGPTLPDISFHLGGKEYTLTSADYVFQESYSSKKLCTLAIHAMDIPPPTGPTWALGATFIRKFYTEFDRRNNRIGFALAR

Aβ = details: cited from earlier work

Sequence of Porcine gastric mucosa pepsin (P00791 60-385): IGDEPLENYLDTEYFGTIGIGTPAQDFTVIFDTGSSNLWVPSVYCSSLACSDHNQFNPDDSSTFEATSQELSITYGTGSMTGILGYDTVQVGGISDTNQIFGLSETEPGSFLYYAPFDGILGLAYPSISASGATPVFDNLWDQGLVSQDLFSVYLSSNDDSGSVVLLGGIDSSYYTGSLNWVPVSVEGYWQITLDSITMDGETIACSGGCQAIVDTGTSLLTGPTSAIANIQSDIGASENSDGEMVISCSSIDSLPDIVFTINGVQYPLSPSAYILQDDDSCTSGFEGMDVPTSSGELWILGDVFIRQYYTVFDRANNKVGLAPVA

Structure (SMILES)	IC50 [1] [µM]	IC50 [2] [µM]	Aβ reduction explored in Phase III studies (Aβ)
NC1=N[C@@]2(c3cc(NC(=O)c4ccc(F)cn4)ccc3F)COC[C@H]2CS1 [LY2886721, reference compound]	77.4	14.1	–
CN1C(=N)N[C@](C)(c2cc(NC(=O)c3ccc(F)cn3)ccc2F)CS1(=O)=O [verubecestat]	–	–	approximately 85%
